DBAASP
Values after ≈ are worked out from the molar mass of the structure shown. Values joined by “and” are separate entries in the source; they are usually repeats but may differ in a detail not shown here. Equal entries are not always repeated.

Assays:
Experiment in all cases: ≥ marks a high value that may be exact or a test limit, other limits are often not marked, values filed in µg/mL are converted to µM
Bacillus subtilis = tested on: Bacillus subtilis
Escherichia coli = tested on: Escherichia coli
[1] = tested on: Enterococcus faecalis ATCC 29212
[2] = tested on: Pseudomonas aeruginosa ATCC 27853
Staphylococcus aureus = tested on: Staphylococcus aureus
Pseudomonas aeruginosa = tested on: Pseudomonas aeruginosa
[3] = tested on: Escherichia coli ATCC 25922
[4] = tested on: Staphylococcus aureus ATCC 29213
[5] = tested on: Candida albicans ATCC 2002
[6] = tested on: Acinetobacter baumannii ATCC 19606

Row | SMILES | MIC (Escherichia coli) [µM] | MIC (Staphylococcus aureus) [µM] | MIC [3] | also measured
1 | CC[C@H](C)[C@H](N)C(=O)N[C@@H](CC(N)=O)C(=O)N[C@@H](Cc1c[nH]c2ccccc12)C(=O)N[C@@H](CCCCN)C(=O)N[C@@H](CCCCN)C(=O)NCC(=O)N[C@@H](CCCCN)C(=O)N[C@@H](CCC(=O)O)C(=O)N[C@H](C(=O)N[C@@H](CC(C)C)C(=O)N[C@@H](CCCCN)C(=O)N[C@@H](C)C(=O)N[C@@H](CC(C)C)C(N)=O)C(C)C [INWKKGKEVLKAL] | > 100 | – | – | MIC (Bacillus subtilis): ≥ 100 µM
2 | CC[C@H](C)[C@H](NC(=O)[C@@H]1CCCN1C(=O)[C@H](CC(C)C)NC(=O)[C@@H](N)CC(C)C)C(=O)N[C@H](C(=O)NCC(=O)N[C@@H](CC(N)=O)C(=O)N[C@@H](CC(C)C)C(=O)N[C@@H](CC(C)C)C(=O)N[C@@H](CCCCN)C(=O)N[C@@H](CO)C(=O)N[C@@H](CC(C)C)C(=O)N[C@@H](CC(C)C)C(=O)NCC(=O)N[C@@H](Cc1c[nH]c2ccccc12)C(=O)N[C@@H](CCCCN)C(=O)N[C@@H](CCCN=C(N)N)C(=O)N[C@@H](CCCCN)C(=O)N[C@@H](CCCN=C(N)N)C(=O)N[C@@H](Cc1ccccc1)C(=O)NCC(N)=O)C(C)C [LLPIVGNLLKSLLGWKRKRFG] | – | – | – | MIC [1]: 5 µM and 12.5 µM; MIC [2]: 4 µM and 8 µM
3 | CC[C@H](C)[C@H](NC(=O)CN)C(=O)NCC(=O)N[C@@H](CCCCN)C(=O)N[C@@H](Cc1ccccc1)C(=O)N[C@H](C(=O)N[C@@H](Cc1cnc[nH]1)C(=O)N[C@@H](C)C(=O)N[C@@H](C)C(=O)N[C@@H](CCCCN)C(=O)N[C@@H](CCCCN)C(=O)N[C@@H](Cc1ccccc1)C(=O)NCC(=O)N[C@@H](CCCCN)C(=O)N[C@@H](CC(C)C)C(=O)N[C@@H](Cc1ccccc1)C(=O)N[C@H](C(=O)NCC(=O)N[C@@H](CCC(=O)O)C(=O)N[C@H](C(=O)N[C@@H](CCSC)C(=O)N[C@@H](CC(N)=O)C(=O)N[C@@H](CO)C(N)=O)[C@@H](C)CC)[C@@H](C)CC)[C@@H](C)CC [GIGKFIHAAKKFGKLFIGEIMNS] | 2.4 (≈ 6.01 µg/mL) | 9.6 (≈ 24.1 µg/mL) | – | MIC (Pseudomonas aeruginosa): 23.1 µM (≈ 57.8 µg/mL)
4 | CC(C)[C@H](NC(=O)[C@H](Cc1c[nH]c2ccccc12)NC(=O)[C@H](CCCCN)NC(=O)[C@@H](N)CCCN=C(N)N)C(=O)N[C@@H](Cc1ccc(O)cc1)C(=O)N[C@@H](Cc1c[nH]c2ccccc12)C(=O)N[C@@H](CCCN=C(N)N)C(=O)N[C@@H](CC(N)=O)C(=O)N[C@@H](CCCN=C(N)N)C(=O)O [RKWVYWRNR] | – | – | 91.7 µM (≈ 125 µg/mL) | MIC [4]: 22.9 µM (≈ 31.3 µg/mL)
5 | CC[C@H](C)[C@H](NC(=O)[C@@H](NC(=O)[C@@H](NC(=O)[C@@H]1CCCN1C(=O)[C@H](Cc1c[nH]c2ccccc12)NC(=O)[C@H](Cc1ccccc1)NC(=O)[C@H](CCCN=C(N)N)NC(=O)[C@H](CCCCN)NC(=O)[C@@H](NC(=O)[C@@H](N)CCCN=C(N)N)[C@@H](C)CC)C(C)C)C(C)C)C(=O)N[C@@H](CCCN=C(N)N)C(=O)N[C@H](C(=O)N[C@H](C(=O)N[C@H](C(=O)N[C@@H](C)C(=O)NCC(=O)N[C@@H](Cc1ccc(O)cc1)C(=O)N[C@@H](CC(N)=O)C(=O)N[C@@H](CC(C)C)C(=O)O)C(C)C)C(C)C)[C@@H](C)O [RIKRFWPVVIRTVVAGYNL] | – | – | 87.4 µM (≈ 200 µg/mL) | MIC [5]: ≥ 32.8 µM
6 | CC(C)C[C@H](NC(=O)[C@H](CC(C)C)NC(=O)[C@H](CCCCN)NC(=O)[C@H](CCCCN)NC(=O)[C@H](CC(C)C)NC(=O)[C@H](Cc1ccc(O)cc1)NC(=O)[C@H](CCCCN)NC(=O)[C@H](CC(C)C)NC(=O)[C@@H](N)Cc1ccccc1)C(N)=O [FLKYLKKLL] | – | – | 13.7 µM and 27.5 µM | MIC [6]: 13.7 µM and 27.5 µM
7 | CC[C@H](C)[C@H](N)C(=O)N[C@@H](CC(N)=O)C(=O)N[C@@H](Cc1c[nH]c2ccccc12)C(=O)N[C@@H](CO)C(=O)N[C@@H](CO)C(=O)N[C@H](C(=O)N[C@@H](Cc1ccccc1)C(=O)N[C@@H](CCC(=O)O)C(=O)N[C@@H](CCCCN)C(=O)N[C@H](C(=O)N[C@@H](CCCCN)C(=O)N[C@@H](CC(N)=O)C(=O)N[C@@H](CC(C)C)C(=O)N[C@H](C(N)=O)C(C)C)C(C)C)[C@@H](C)CC [INWSSIFEKVKNLV] | 35 (≈ 58.7 µg/mL) | – | – | MIC (Bacillus subtilis): ≥ 40 µM
8 | CC[C@H](C)[C@H](NC(=O)[C@H](CO)NC(=O)[C@H](C)NC(=O)[C@H](CC(C)C)NC(=O)CNC(=O)[C@H](C)NC(=O)[C@H](CCCCN)NC(=O)[C@H](C)NC(=O)[C@H](Cc1ccccc1)NC(=O)[C@H](CCCCN)NC(=O)[C@H](CCCCN)NC(=O)[C@H](CC(C)C)NC(=O)CNC(=O)[C@H](CCC(=O)O)NC(=O)[C@H](C)NC(=O)[C@H](C)NC(=O)[C@@H](NC(=O)[C@@H](NC(=O)[C@H](Cc1c[nH]c2ccccc12)NC(=O)[C@H](Cc1ccccc1)NC(=O)CN)[C@@H](C)O)[C@@H](C)O)C(=O)N[C@@H](CC(C)C)C(=O)N[C@@H](CC(N)=O)C(=O)N1CCC[C@H]1C(=O)N[C@@H](CCCCN)C(=O)O [GFWTTAAEGLKKFAKAGLASILNPK] | 80 (≈ 210 µg/mL) | > 80 | – | –
9 | CC[C@H](C)[C@H](NC(=O)[C@@H](NC(=O)[C@H](CO)NC(=O)[C@@H]1CCCN1C(=O)[C@@H](NC(=O)[C@@H](NC(=O)[C@H](CO)NC(=O)[C@H](CO)NC(=O)[C@H](CC(C)C)NC(=O)[C@H](C)NC(=O)[C@H](CO)NC(=O)[C@H](CC(C)C)NC(=O)[C@H](C)NC(=O)[C@H](C)NC(=O)CNC(=O)[C@H](CC(C)C)NC(=O)[C@@H](N)CC(C)C)C(C)C)[C@@H](C)CC)C(C)C)C(=O)N[C@@H](CO)C(=O)N[C@@H](Cc1c[nH]c2ccccc12)C(=O)N[C@@H](Cc1ccccc1)C(=O)N[C@@H](CCC(N)=O)C(=O)N[C@@H](CCCCN)C(N)=O [LLGAALSALSSVIPSVISWFQK] | – | 8 (≈ 18.3 µg/mL) | > 64 µM | MIC [1]: 16 µM (≈ 36.6 µg/mL); MIC [6]: 32 µM (≈ 73.2 µg/mL); MIC [4]: 4 µM (≈ 9.15 µg/mL)
